What was measured:
[1] = biological target: Serine/threonine-protein kinase Sgk3 (Homo sapiens) (UniProt Q96BR1); conditions: Compound concentration 1000.0 nM
[2] = biological target: Serine/threonine-protein kinase Nek10 (Homo sapiens) (UniProt Q6ZWH5); conditions: Compound concentration 1000.0 nM
[3] = biological target: Serine/threonine-protein kinase haspin (Homo sapiens) (UniProt Q8TF76); conditions: Compound concentration 1000.0 nM
[4] = biological target: Phosphorylase b kinase gamma catalytic chain, skeletal muscle/heart isoform (Homo sapiens) (UniProt Q16816); conditions: Compound concentration 1000.0 nM
Chain of Phosphorylase b kinase gamma catalytic chain, skeletal muscle/heart isoform (Homo sapiens) (Q16816 whole entry, looked up, canonical isoform): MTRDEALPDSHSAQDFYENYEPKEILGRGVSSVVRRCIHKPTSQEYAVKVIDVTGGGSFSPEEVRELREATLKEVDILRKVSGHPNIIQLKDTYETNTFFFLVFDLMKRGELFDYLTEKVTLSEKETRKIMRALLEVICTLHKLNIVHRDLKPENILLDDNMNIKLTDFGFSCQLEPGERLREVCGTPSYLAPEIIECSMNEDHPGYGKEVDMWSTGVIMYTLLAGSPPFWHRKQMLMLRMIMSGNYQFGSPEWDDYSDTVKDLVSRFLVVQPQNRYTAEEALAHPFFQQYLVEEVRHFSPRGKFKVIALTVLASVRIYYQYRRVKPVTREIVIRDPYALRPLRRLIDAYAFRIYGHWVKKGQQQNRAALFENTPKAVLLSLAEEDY

[5] = biological target: 1-phosphatidylinositol 3-phosphate 5-kinase (Homo sapiens) (UniProt Q9Y2I7); conditions: Compound concentration 1000.0 nM
[6] = tested on: Phosphatidylinositol 4,5-bisphosphate 3-kinase catalytic subunit alpha isoform (Homo sapiens), P42336 [E542K]; conditions: Compound concentration 1000.0 nM
[7] = biological target: Serine/threonine-protein kinase Sgk2 (Homo sapiens) (UniProt Q9HBY8); conditions: Compound concentration 1000.0 nM
[8] = biological target: Prostaglandin G/H synthase 1 (Homo sapiens) (UniProt P23219); assay: COX1(h) Eurofins-Cerep enzyme and uptake assay; conditions: Compound concentration 10.0 uM
[9] = biological target: Phosphatidylinositol 5-phosphate 4-kinase type-2 beta (Homo sapiens) (UniProt P78356); conditions: Compound concentration 1000.0 nM
Chain of Phosphatidylinositol 5-phosphate 4-kinase type-2 beta (Homo sapiens) (P78356 whole entry): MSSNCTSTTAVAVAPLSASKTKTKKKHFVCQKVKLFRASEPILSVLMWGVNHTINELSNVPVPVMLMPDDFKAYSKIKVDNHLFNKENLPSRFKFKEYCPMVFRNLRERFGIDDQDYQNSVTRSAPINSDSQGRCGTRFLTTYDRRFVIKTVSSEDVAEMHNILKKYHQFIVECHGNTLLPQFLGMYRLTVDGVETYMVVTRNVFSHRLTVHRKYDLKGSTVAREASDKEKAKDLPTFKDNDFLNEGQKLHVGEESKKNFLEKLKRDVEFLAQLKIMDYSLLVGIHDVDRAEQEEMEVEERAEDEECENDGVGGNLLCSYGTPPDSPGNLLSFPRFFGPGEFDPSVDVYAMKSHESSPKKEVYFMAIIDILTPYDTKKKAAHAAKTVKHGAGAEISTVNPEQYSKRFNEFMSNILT

[10] = biological target: NT-3 growth factor receptor (Homo sapiens) (UniProt Q16288); conditions: Compound concentration 1000.0 nM
[11] = biological target: Serine/threonine-protein kinase 26 (Homo sapiens) (UniProt Q9P289); conditions: Compound concentration 1000.0 nM
[12] = tested on: Receptor-type tyrosine-protein kinase FLT3 (Homo sapiens), P36888 [UNDEFINED MUTATION]; conditions: Compound concentration 1000.0 nM
Chain of Receptor-type tyrosine-protein kinase FLT3 (Homo sapiens), P36888 [UNDEFINED MUTATION] (P36888 whole entry, looked up, change not shown): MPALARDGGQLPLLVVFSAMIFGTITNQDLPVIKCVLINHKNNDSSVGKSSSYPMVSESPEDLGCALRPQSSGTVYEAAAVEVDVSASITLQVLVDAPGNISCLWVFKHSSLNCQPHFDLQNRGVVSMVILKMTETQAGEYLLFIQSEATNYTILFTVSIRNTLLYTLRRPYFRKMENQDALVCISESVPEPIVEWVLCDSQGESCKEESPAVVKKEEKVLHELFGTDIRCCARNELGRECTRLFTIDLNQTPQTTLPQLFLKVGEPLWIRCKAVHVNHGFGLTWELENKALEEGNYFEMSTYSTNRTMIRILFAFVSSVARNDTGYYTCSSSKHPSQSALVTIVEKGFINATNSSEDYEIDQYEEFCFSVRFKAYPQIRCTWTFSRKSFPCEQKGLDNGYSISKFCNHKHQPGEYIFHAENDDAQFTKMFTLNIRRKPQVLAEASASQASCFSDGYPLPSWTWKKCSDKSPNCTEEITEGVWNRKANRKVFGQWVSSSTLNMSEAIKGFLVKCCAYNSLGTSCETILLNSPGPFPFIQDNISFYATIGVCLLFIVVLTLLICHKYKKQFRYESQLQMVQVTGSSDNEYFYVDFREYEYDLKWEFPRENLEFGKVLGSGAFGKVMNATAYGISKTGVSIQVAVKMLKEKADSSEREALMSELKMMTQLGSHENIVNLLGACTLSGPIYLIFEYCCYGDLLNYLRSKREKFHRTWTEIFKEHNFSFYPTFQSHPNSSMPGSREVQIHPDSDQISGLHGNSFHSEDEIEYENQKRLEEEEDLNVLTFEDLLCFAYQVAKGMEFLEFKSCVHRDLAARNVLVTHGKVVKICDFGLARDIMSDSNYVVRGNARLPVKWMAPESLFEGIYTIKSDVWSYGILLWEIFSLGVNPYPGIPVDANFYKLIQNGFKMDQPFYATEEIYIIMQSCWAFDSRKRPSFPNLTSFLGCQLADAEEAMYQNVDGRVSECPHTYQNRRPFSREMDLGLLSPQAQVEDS

[13] = biological target: Focal adhesion kinase 1 (Homo sapiens) (UniProt Q05397); conditions: Compound concentration 1000.0 nM
[14] = biological target: Serine/threonine-protein kinase 10 (Homo sapiens) (UniProt O94804); conditions: Compound concentration 1000.0 nM
[15] = biological target: Serine/threonine-protein kinase Chk2 (Homo sapiens) (UniProt O96017); conditions: Compound concentration 1000.0 nM
[16] = biological target: Serine/threonine-protein kinase pim-2 (Homo sapiens) (UniProt Q9P1W9); conditions: Compound concentration 1000.0 nM
Chain of Serine/threonine-protein kinase pim-2 (Homo sapiens) (Q9P1W9 whole entry, looked up): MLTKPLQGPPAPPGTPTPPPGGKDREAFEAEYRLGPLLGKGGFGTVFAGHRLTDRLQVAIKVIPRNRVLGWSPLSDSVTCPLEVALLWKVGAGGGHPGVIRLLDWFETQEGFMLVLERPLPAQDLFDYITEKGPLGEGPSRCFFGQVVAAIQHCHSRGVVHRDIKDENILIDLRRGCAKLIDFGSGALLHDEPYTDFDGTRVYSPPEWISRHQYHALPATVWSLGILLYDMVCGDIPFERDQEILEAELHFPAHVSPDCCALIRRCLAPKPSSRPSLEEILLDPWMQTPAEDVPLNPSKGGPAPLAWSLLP

[17] = biological target: Mitogen-activated protein kinase kinase kinase 12 (Homo sapiens) (UniProt Q12852); conditions: Compound concentration 1000.0 nM
[18] = biological target: Serine/threonine-protein kinase WNK1 (Homo sapiens) (UniProt Q9H4A3); conditions: Compound concentration 1000.0 nM
[19] = biological target: MAP/microtubule affinity-regulating kinase 4 (Homo sapiens) (UniProt Q96L34); conditions: Compound concentration 1000.0 nM
[20] = biological target: Serine/threonine-protein kinase RIO3 (Homo sapiens) (UniProt O14730); conditions: Compound concentration 1000.0 nM
[21] = biological target: Protein kinase C delta type (Homo sapiens) (UniProt Q05655); conditions: Compound concentration 1000.0 nM
[22] = biological target: Glycogen synthase kinase-3 beta (Homo sapiens) (UniProt P49841); conditions: Compound concentration 1000.0 nM
[23] = biological target: Aurora kinase B (Homo sapiens) (UniProt Q96GD4); conditions: Compound concentration 1000.0 nM
[24] = biological target: TGF-beta receptor type-1 (Homo sapiens) (UniProt P36897); conditions: Compound concentration 1000.0 nM
Chain of TGF-beta receptor type-1 (Homo sapiens) (P36897 whole entry): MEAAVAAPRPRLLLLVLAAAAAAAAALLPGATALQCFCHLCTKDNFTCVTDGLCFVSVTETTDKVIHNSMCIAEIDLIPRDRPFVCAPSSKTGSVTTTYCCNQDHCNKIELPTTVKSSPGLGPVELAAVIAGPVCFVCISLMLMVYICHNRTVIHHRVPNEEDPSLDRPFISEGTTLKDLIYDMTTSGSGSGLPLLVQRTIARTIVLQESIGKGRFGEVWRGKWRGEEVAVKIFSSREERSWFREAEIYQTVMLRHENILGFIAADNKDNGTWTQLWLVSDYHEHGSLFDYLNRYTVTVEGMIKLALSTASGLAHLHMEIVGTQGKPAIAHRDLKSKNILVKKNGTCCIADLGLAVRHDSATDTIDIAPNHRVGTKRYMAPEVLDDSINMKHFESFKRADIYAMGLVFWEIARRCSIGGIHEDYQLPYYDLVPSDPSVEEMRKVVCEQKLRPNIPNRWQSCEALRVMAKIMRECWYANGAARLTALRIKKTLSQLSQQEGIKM

[25] = biological target: Protein kinase C iota type (Homo sapiens) (UniProt P41743); conditions: Compound concentration 1000.0 nM
Chain of Protein kinase C iota type (Homo sapiens) (P41743 whole entry): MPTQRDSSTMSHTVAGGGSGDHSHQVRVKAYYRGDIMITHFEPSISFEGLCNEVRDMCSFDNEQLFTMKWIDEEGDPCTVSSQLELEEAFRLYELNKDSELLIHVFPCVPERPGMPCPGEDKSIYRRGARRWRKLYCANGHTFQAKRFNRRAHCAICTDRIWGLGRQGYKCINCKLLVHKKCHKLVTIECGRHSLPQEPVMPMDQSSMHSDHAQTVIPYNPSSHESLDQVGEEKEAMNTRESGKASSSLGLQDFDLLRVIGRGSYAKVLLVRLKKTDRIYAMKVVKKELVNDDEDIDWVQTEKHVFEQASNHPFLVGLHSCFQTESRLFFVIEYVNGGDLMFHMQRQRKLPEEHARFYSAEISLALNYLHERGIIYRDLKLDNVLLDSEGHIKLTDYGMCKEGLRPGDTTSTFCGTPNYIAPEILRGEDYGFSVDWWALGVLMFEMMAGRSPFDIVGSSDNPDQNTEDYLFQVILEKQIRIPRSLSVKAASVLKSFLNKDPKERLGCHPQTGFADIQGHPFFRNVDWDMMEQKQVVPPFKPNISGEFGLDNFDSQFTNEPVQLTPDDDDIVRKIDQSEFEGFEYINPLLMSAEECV

[26] = biological target: Dual specificity mitogen-activated protein kinase kinase 6 (Homo sapiens) (UniProt P52564); conditions: Compound concentration 1000.0 nM
Chain of Dual specificity mitogen-activated protein kinase kinase 6 (Homo sapiens) (P52564 whole entry): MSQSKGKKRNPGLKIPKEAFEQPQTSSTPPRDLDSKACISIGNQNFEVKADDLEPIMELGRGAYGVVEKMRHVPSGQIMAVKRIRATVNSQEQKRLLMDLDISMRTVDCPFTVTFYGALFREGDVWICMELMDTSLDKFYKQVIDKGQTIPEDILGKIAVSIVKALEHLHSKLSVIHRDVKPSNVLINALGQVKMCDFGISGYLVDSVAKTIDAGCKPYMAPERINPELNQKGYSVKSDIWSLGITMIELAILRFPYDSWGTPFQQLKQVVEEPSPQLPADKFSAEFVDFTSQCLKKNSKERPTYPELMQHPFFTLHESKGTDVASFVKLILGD

[27] = biological target: Tyrosine-protein kinase TXK (Homo sapiens) (UniProt P42681); conditions: Compound concentration 1000.0 nM
Chain of Tyrosine-protein kinase TXK (Homo sapiens) (P42681 whole entry): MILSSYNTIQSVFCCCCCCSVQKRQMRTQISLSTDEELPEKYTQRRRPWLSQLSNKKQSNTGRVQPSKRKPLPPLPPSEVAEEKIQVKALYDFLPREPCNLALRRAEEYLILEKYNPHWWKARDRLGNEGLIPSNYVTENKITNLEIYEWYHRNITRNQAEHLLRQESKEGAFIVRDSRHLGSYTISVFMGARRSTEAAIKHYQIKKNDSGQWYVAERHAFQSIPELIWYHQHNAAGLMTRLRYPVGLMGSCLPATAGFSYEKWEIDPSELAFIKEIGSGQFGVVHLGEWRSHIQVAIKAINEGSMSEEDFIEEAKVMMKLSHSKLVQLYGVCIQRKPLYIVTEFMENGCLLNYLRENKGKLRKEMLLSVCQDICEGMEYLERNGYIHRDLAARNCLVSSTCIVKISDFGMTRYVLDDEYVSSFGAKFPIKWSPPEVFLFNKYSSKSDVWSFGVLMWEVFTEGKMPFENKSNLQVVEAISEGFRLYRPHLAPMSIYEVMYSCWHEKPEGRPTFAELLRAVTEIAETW

[28] = biological target: T1, Glutamate NMDA receptor (Rattus norvegicus) (UniProt P35439+Q00959+Q00960+Q00961+Q62645+Q8VHN2+Q9R1M7); assay: PCP Eurofins-Cerep binding assay; assay type: protein-complex assay; design: ligand concentration 10 nM; conditions: filed as antagonist, Compound concentration 10.0 uM
[29] = biological target: Serine/threonine-protein kinase MRCK gamma (Homo sapiens) (UniProt Q6DT37); conditions: Compound concentration 1000.0 nM
[30] = tested on: Tyrosine-protein kinase ABL1 (Homo sapiens), P00519 [F317I]; conditions: Compound concentration 1000.0 nM
[31] = biological target: Cyclin-dependent kinase 17 (Homo sapiens) (UniProt Q00537); conditions: Compound concentration 1000.0 nM
Chain of Cyclin-dependent kinase 17 (Homo sapiens) (Q00537 whole entry, looked up): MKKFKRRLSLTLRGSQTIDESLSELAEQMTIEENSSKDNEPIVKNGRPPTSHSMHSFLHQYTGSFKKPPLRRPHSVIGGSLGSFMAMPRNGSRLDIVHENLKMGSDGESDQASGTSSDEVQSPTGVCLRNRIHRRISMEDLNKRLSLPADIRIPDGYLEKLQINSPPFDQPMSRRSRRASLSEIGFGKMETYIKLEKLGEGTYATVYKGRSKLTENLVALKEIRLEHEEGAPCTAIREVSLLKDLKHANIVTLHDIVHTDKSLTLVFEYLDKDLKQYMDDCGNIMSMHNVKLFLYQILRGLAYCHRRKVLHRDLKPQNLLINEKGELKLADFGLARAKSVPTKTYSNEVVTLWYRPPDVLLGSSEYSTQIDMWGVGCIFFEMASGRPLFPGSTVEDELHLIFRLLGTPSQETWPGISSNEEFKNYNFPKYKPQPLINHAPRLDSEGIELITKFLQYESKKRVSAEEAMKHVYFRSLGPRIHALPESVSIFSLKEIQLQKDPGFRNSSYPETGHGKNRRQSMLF

[32] = biological target: Mitogen-activated protein kinase 7 (Homo sapiens) (UniProt Q13164); conditions: Compound concentration 1000.0 nM
[33] = biological target: Adenosine receptor A2b (Homo sapiens) (UniProt P29275); assay: A2B (h) Eurofins-Cerep binding assay; design: ligand concentration 5 nM; conditions: filed as antagonist, Compound concentration 10.0 uM
Chain of Adenosine receptor A2b (Homo sapiens) (P29275 whole entry): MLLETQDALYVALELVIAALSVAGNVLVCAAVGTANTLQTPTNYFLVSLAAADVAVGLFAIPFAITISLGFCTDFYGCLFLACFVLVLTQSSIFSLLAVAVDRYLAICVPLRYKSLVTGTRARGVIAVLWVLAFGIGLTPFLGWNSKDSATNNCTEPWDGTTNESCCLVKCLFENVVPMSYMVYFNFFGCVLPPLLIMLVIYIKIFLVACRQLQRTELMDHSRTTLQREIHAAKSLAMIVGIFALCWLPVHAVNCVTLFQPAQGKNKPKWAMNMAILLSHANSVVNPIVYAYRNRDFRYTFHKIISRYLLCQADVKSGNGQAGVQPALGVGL

[34] = biological target: Cyclin-dependent kinase 19 (Homo sapiens) (UniProt Q9BWU1); conditions: Compound concentration 1000.0 nM
[35] = biological target: Calcium-dependent protein kinase 1 (Plasmodium falciparum) (UniProt P62344); conditions: Compound concentration 1000.0 nM
[36] = biological target: T1, Glutamate NMDA receptor (Rattus norvegicus); assay: NMDA Eurofins-Cerep binding assay; assay type: protein-complex assay; design: ligand concentration 5 nM; conditions: filed as antagonist, Compound concentration 10.0 uM
[37] = biological target: Aurora kinase C (Homo sapiens) (UniProt Q9UQB9); conditions: Compound concentration 1000.0 nM
[38] = biological target: MAP kinase-activated protein kinase 2 (Homo sapiens) (UniProt P49137); conditions: Compound concentration 1000.0 nM
[39] = biological target: Tyrosine-protein kinase Lyn (Homo sapiens) (UniProt P07948); conditions: Compound concentration 1000.0 nM

CCCOc1ccc([C@H]2[C@H](C(=O)O)[C@@H](c3ccc4c(c3)OCO4)CN2CC(=O)Nc2c(CC)cccc2CC)cc1 [A-192621]
residual activity [1]: 63%
residual activity [2]: 82%
residual activity [3]: 62%
residual activity [4]: 99%
residual activity [5]: 86%
residual activity [6]: 75%
residual activity [7]: 54%
% Inhibition of Control Values (Mean n=2) [8]: 13.2%
residual activity [9]: 97%
residual activity [10]: 71%
residual activity [11]: 74%
residual activity [12]: 59%
residual activity [13]: 86%
residual activity [14]: 97%
residual activity [15]: 88%
residual activity [16]: 91%
residual activity [17]: 52%
residual activity [18]: 89%
residual activity [19]: 97%
residual activity [20]: 100%
residual activity [21]: 100%
residual activity [22]: 73%
residual activity [23]: 72%
residual activity [24]: 64%
residual activity [25]: 78%
residual activity [26]: 100%
residual activity [27]: 85%
% Inhibition of Control Specific Binding (Mean n=2) [28]: -1.5%
residual activity [29]: 79%
residual activity [30]: 71%
residual activity [31]: 91%
residual activity [32]: 97%
% Inhibition of Control Specific Binding (Mean n=2) [33]: -6.1%
residual activity [34]: 95%
residual activity [35]: 88%
% Inhibition of Control Specific Binding (Mean n=2) [36]: 3.3%
residual activity [37]: 91%
residual activity [38]: 100%
residual activity [39]: 90%

CCCOc1ccc([C@@H]2[C@@H](C(=O)O)[C@H](c3ccc4c(c3)OCO4)CN2CC(=O)Nc2c(CC)cccc2CC)cc1 [A-1806262]
residual activity [1]: 69%
residual activity [2]: 96%
residual activity [3]: 99%
residual activity [4]: 97%
residual activity [5]: 91%
residual activity [6]: 81%
residual activity [7]: 69%
% Inhibition of Control Values (Mean n=2) [8]: 2.3%
residual activity [9]: 80%
residual activity [10]: 91%
residual activity [11]: 81%
residual activity [12]: 61%
residual activity [13]: 88%
residual activity [14]: 98%
residual activity [15]: 98%
residual activity [16]: 99%
residual activity [17]: 100%
residual activity [18]: 91%
residual activity [19]: 100%
residual activity [20]: 100%
residual activity [21]: 100%
residual activity [22]: 100%
residual activity [23]: 77%
residual activity [24]: 64%
residual activity [25]: 80%
residual activity [26]: 100%
residual activity [27]: 100%
% Inhibition of Control Specific Binding (Mean n=2) [28]: 0.2%
residual activity [29]: 57%
residual activity [30]: 83%
residual activity [31]: 90%
residual activity [32]: 93%
% Inhibition of Control Specific Binding (Mean n=2) [33]: -8.6%
residual activity [34]: 89%
residual activity [35]: 64%
% Inhibition of Control Specific Binding (Mean n=2) [36]: 6.6%
residual activity [37]: 94%
residual activity [38]: 100%
residual activity [39]: 96%
